Results as given in patent US20220192978A1, “Pharmaceutical Inhalation Aerosol and Preparation Method Therefor” (CF PharmTech, Inc., priority 2019, published 2022).
Where a name gives a salt, the structure may show the parent alone.

What was measured:
[1] = particle size test of micronized powder (D10, D50, D90, SPAN); format: physicochemical; details: fine powder used for direct mixing
Text: In the invention, D90 is described as the volume of particles smaller than a certain particle size (x) accounts for 90% of the total volume of the particles, D50 is described as the volume of particles smaller than a certain particle size (x) accounts for 50% of the total volume of the particles, and D10 is described as the volume of particles smaller than a certain particle size (x) accounts for 10% of the total volume of the particles.
The pressure of the jet mill was decreased and the above steps were repeated, in order to investigate the effect of pressure (10 bar, 8 bar, 4 bar, 3 bar, 2 bar) on the particle size of the glycopyrronium bromide/indacaterol maleate mixture, the Fine Particle Fraction of glycopyrronium bromide and the degree of co-deposition of the two active ingredients.

[2] = Anderson cascade impactor (ACI) test of the inhalation aerosol (deposition rate per plate, FPF); format: physicochemical; details: for Fine Particle Fraction (FPF) (lung): in single or compound preparations (MDI); for FPF of glycopyrronium bromide (%) / FPF of indacaterol maleate (%): inhalation aerosol prepared directly from micronized powder(s), no co-micronization; for Fine Particle Fraction (in words): prepared as a suspension-type inhalation aerosol
Method: Prescription amounts of glycopyrronium bromide and indacaterol maleate were added to an aluminum can, valve-sealed, and filled with propellant, HFA-134a. After being inverted for 2 days, it was tested according to 0951, volume IV general rules of the Pharmacopoeia of the People's Republic of China 2015 Edition. The sum of the deposition from the stage plate 3 to the filter membrane is the Fine Particle Dose (FPD). The FPD (less than 5 μm) divided by the total amount collected by the Anderson cascade impactor (Total Dose, TD) is the Fine Particle Fraction (FPF).
Micronized powders were precisely weighed and placed in a 14 mL fluorocarbon polymerization (FCP)-coated aluminum can, valve-sealed, filled, ultrasonicated for 10 minutes, and then kept for 2 days for Anderson cascade impactor testing. It was tested according to 0951 device 2, volume IV general rules of the Pharmacopoeia of the People's Republic of China 2015 Edition. The relative humidity of the test environment should be 45% to 55%. The flow rate was adjusted to 28.3±1.5 liters per minute. Take 1 bottle of this product, shake it sufficiently, and discard 4 sprays. Wipe the mouthpiece with ethanol, dry it sufficiently, turn on the vacuum pump, shake for 5 seconds (note that shake for 5 seconds before each spray and the interval between sprays is 30 seconds), insert the product into the adapter, and spray once immediately. After removing the aluminum can and the driver, shake for 5 seconds, reinsert into the adapter, and immediately spray the second time. Repeat this process until the completion of 10 sprays. After the last spray, wait 1 minute, then remove the aluminum can and driver, turn off the vacuum pump, and remove the device. The various plates of the Anderson impactor were washed with a specific ratio of methanol aqueous solution, and the content of the drugs deposited on each plate was determined by HPLC.

| SMILES | D90 [1] | Fine Particle Fraction (FPF) (lung) [2] | FPF of glycopyrronium bromide (%) [2] | FPF of glycopyrronium bromide (%) ([2]; listed as glycopyrronium bromide fine powder) | Fine Particle Fraction (in words) [2] | FPF of indacaterol maleate (%) [2] | FPF of indacaterol maleate (%) ([2]; listed as indacaterol fine powder) |
| --- | --- | --- | --- | --- | --- | --- | --- |
| C[N+]1(C)CCC(OC(=O)C(O)(c2ccccc2)C2CCCC2)C1 (stereo not shown) [glycopyrronium bromide] | 3.43 μm | 15-20% | 25.68% | 24% | low | – | – |
| CCc1cc2c(cc1CC)CC(NC[C@H](O)c1ccc(O)c3[nH]c(=O)ccc13)C2 [indacaterol maleate] | 3.84 μm | 40-50% | – | – | high | 45.66% | 45% |
